Assay results: ChEMBL document CHEMBL4477270, “Design, synthesis, and protein methyltransferase activity of a unique set of constrained amine containing compounds” (Bioorg Med Chem Lett, 2016)

Columns and labels:
[1] = molecular target: Protein N-lysine methyltransferase METTL21A (Homo sapiens) (UniProt Q8WXB1); assay: Inhibition of METTL21A (unknown origin) using biotin-labeled histone substrate assessed as residual activity at 50 uM in presence of [3H-Me]SAM by scintillation proximity assay relative to control
Sequence of Protein N-lysine methyltransferase METTL21A (Homo sapiens) (Q8WXB1 whole entry): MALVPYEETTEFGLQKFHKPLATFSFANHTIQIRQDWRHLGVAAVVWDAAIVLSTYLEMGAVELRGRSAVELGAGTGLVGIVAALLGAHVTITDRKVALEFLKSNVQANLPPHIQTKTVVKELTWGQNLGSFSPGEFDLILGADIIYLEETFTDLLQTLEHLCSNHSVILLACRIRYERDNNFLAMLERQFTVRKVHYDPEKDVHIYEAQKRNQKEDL

[2] = molecular target: Histone-lysine N-methyltransferase 2A (Homo sapiens) (UniProt Q03164); assay: Inhibition of MLL1 (unknown origin) using biotin-labeled histone substrate assessed as residual activity at 50 uM in presence of [3H-Me]SAM by scintillation proximity assay relative to control
Sequence of Histone-lysine N-methyltransferase 2A (Homo sapiens) (Q03164 1-2718 limits assumed): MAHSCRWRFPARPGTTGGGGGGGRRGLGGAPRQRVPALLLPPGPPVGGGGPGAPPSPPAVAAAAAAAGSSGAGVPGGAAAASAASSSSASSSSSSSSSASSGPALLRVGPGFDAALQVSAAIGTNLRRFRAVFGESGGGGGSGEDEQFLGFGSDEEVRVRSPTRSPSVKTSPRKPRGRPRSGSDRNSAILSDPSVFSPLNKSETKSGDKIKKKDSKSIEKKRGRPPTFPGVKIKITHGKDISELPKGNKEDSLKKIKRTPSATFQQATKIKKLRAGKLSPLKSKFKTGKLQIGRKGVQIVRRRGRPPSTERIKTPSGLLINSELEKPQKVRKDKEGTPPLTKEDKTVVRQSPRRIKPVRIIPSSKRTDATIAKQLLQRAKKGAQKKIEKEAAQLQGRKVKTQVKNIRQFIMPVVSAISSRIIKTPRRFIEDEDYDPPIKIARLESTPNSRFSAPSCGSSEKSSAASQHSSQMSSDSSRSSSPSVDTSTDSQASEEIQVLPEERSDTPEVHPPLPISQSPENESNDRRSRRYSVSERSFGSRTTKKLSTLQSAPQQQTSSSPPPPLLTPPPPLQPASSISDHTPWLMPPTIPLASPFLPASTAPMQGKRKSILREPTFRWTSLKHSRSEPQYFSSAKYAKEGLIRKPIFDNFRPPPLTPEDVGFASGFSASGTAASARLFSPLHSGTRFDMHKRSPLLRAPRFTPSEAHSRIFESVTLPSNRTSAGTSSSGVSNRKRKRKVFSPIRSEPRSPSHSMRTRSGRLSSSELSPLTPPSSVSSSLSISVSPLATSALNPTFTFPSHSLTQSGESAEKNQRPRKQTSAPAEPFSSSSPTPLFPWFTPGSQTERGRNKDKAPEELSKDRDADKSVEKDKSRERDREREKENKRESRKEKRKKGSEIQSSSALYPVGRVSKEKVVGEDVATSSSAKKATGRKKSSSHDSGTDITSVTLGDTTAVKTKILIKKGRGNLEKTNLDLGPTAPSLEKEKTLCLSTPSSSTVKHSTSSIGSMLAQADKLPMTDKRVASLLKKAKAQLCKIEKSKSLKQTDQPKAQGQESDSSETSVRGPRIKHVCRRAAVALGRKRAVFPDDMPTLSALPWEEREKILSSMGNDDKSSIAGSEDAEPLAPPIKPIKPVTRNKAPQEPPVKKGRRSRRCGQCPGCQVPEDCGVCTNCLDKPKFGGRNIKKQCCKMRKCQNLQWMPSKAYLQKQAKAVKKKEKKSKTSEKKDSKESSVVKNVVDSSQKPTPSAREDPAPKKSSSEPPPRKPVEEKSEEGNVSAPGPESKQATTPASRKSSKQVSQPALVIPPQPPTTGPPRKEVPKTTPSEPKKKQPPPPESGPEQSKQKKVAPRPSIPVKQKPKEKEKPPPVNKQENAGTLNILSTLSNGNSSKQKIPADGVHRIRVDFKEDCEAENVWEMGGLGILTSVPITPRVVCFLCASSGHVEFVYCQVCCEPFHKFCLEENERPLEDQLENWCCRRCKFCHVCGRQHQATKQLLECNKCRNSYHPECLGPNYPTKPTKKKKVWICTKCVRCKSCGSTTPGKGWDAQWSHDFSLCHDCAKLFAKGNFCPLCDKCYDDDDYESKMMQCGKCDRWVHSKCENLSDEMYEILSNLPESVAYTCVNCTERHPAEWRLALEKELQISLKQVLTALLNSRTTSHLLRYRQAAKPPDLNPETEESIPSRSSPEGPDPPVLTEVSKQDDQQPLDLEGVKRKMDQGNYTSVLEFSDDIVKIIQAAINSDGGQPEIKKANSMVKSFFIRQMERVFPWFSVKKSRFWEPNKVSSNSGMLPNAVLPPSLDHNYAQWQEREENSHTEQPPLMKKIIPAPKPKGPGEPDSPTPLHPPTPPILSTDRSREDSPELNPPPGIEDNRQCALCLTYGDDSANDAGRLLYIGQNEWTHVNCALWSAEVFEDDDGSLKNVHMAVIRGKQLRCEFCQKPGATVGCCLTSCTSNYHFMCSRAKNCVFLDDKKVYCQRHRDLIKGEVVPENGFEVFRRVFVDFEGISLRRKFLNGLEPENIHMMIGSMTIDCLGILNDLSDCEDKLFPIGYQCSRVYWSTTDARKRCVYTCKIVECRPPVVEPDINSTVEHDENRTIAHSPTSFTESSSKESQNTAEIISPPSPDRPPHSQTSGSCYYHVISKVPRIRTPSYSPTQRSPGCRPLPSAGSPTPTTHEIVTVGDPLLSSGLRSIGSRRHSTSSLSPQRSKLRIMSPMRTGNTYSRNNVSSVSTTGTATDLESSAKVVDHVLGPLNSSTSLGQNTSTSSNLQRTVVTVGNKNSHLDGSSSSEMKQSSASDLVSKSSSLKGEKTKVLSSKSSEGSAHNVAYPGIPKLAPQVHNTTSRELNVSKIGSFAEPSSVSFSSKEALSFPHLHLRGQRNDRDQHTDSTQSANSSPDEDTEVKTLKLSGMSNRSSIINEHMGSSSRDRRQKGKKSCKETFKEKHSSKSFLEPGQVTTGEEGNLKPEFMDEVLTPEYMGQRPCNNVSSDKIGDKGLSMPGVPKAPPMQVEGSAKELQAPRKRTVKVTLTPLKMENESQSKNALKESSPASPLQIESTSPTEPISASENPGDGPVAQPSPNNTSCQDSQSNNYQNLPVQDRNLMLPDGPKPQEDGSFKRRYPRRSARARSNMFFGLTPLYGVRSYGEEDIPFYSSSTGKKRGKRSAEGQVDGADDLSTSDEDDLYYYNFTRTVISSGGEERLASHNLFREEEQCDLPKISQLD
Sequence of Histone-lysine N-methyltransferase 2A (Homo sapiens) (Q03164 2719-3969 limits assumed): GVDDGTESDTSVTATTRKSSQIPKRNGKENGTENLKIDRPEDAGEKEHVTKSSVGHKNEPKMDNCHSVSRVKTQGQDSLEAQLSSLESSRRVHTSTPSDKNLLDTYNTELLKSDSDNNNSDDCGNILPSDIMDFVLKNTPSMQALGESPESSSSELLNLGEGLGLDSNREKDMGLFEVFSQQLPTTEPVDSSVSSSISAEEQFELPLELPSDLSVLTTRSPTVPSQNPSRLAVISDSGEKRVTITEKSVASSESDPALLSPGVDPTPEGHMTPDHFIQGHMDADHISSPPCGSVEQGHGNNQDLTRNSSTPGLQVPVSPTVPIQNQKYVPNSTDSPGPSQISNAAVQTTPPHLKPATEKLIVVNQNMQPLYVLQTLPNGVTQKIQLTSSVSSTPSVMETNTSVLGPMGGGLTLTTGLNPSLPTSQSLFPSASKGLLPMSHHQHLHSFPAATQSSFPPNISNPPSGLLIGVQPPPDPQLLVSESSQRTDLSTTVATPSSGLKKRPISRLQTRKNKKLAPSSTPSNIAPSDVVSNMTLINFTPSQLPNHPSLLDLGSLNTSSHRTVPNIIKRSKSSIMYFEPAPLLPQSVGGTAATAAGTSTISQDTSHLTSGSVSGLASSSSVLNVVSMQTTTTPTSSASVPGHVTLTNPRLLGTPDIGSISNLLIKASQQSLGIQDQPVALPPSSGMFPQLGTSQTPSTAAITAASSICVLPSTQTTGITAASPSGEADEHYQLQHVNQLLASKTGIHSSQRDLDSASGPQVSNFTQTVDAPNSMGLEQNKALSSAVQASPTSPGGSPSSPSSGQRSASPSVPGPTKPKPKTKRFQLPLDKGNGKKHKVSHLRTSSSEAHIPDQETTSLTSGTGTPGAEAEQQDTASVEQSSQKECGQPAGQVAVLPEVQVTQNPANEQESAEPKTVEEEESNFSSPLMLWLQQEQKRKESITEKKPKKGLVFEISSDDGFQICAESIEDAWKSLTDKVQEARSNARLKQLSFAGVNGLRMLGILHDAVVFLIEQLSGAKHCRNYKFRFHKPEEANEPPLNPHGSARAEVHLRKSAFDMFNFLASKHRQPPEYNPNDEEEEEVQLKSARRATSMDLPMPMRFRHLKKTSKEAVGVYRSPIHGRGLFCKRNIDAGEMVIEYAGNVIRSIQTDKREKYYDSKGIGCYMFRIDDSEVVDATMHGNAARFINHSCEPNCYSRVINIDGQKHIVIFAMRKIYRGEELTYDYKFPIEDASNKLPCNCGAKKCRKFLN

[3] = molecular target: Protein arginine N-methyltransferase 6 (Homo sapiens) (UniProt Q96LA8); assay: Inhibition of PRMT6 (unknown origin) using biotin-labeled histone substrate assessed as residual activity at 50 uM in presence of [3H-Me]SAM by scintillation proximity assay relative to control
[4] = molecular target: Histone-lysine N-methyltransferase KMT5B (Homo sapiens) (UniProt Q4FZB7); assay: Inhibition of SUV420H1 (unknown origin) using biotin-labeled histone substrate assessed as residual activity at 50 uM in presence of [3H-Me]SAM by scintillation proximity assay relative to control
[5] = molecular target: Histone-lysine N-methyltransferase, H3 lysine-36 specific (Homo sapiens) (UniProt Q96L73); assay: Inhibition of NSD1 (unknown origin) using biotin-labeled histone substrate assessed as residual activity at 50 uM in presence of [3H-Me]SAM by scintillation proximity assay relative to control
[6] = molecular target: T1, Histone-lysine N-methyltransferase SUV39H1 (Homo sapiens) (UniProt O43463); assay: Inhibition of SUV39H1 (unknown origin) using biotin-labeled histone substrate assessed as residual activity at 50 uM in presence of [3H-Me]SAM by scintillation proximity assay relative to control
T1 sequence (whole entry): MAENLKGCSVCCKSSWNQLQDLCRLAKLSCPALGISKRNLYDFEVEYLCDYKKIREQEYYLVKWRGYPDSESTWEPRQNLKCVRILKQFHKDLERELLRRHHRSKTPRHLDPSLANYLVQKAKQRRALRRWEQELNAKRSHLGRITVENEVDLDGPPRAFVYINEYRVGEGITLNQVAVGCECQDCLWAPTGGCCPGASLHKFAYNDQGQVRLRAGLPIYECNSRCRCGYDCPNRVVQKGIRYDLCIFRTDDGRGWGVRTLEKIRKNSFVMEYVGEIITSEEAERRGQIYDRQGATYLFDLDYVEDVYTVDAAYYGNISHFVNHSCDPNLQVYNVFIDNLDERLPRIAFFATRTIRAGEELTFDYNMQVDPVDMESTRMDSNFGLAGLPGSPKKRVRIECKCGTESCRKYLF

[7] = molecular target: Protein N-lysine methyltransferase METTL21D (Homo sapiens) (UniProt Q9H867); assay: Inhibition of METTL21D (unknown origin) using biotin-labeled histone substrate assessed as residual activity at 50 uM in presence of [3H-Me]SAM by scintillation proximity assay relative to control
[8] = molecular target: Histone-lysine N-methyltransferase KMT5C (Homo sapiens) (UniProt Q86Y97); assay: Inhibition of SUV420H2 (unknown origin) using biotin-labeled histone substrate assessed as residual activity at 50 uM in presence of [3H-Me]SAM by scintillation proximity assay relative to control
[9] = molecular target: T2, Histone-lysine N-methyltransferase NSD2 (Homo sapiens) (UniProt O96028); assay: Inhibition of NSD2 (unknown origin) using biotin-labeled histone substrate assessed as residual activity at 50 uM in presence of [3H-Me]SAM by scintillation proximity assay relative to control
T2 sequence (whole entry): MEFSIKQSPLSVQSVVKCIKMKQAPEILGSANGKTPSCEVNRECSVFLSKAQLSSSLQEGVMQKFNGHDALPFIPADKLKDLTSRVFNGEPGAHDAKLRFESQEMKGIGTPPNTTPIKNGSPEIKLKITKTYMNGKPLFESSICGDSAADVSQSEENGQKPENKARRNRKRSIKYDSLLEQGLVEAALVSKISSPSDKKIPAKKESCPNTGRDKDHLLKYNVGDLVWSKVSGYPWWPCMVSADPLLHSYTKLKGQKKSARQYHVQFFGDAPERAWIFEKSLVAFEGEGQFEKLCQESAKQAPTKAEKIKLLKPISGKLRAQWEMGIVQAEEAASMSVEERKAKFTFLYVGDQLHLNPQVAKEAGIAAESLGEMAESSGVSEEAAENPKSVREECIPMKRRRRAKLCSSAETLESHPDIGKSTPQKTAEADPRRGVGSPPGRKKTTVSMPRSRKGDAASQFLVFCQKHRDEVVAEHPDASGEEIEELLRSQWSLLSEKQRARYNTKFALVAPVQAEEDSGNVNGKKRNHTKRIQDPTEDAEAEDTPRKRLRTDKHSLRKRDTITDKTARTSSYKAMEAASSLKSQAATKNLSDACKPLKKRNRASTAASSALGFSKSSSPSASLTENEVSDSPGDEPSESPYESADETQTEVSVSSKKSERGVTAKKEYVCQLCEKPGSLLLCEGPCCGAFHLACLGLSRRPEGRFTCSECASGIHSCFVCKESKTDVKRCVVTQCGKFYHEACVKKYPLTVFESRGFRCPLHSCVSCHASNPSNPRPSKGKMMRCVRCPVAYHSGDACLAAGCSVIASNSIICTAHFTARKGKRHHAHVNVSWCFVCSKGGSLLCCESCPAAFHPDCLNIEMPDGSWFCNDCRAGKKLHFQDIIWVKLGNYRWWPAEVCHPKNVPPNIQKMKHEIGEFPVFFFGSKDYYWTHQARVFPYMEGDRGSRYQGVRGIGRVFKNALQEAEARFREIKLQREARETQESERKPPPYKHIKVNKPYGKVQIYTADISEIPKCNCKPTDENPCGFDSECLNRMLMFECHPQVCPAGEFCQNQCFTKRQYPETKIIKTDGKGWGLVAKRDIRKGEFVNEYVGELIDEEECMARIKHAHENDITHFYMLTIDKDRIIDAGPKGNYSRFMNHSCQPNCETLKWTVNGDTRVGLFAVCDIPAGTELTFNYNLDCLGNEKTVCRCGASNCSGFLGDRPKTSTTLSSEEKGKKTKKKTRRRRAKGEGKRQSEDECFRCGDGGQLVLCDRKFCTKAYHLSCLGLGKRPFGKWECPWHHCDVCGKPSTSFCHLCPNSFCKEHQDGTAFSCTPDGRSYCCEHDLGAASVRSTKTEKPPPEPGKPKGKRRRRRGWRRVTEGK

[10] = molecular target: Histone-lysine N-methyltransferase EZH2 (Homo sapiens) (UniProt Q15910); assay: Inhibition of EZH2 (unknown origin) using biotin-labeled histone substrate assessed as residual activity at 50 uM in presence of [3H-Me]SAM by scintillation proximity assay relative to control
Sequence of Histone-lysine N-methyltransferase EZH2 (Homo sapiens) (Q15910 whole entry, looked up): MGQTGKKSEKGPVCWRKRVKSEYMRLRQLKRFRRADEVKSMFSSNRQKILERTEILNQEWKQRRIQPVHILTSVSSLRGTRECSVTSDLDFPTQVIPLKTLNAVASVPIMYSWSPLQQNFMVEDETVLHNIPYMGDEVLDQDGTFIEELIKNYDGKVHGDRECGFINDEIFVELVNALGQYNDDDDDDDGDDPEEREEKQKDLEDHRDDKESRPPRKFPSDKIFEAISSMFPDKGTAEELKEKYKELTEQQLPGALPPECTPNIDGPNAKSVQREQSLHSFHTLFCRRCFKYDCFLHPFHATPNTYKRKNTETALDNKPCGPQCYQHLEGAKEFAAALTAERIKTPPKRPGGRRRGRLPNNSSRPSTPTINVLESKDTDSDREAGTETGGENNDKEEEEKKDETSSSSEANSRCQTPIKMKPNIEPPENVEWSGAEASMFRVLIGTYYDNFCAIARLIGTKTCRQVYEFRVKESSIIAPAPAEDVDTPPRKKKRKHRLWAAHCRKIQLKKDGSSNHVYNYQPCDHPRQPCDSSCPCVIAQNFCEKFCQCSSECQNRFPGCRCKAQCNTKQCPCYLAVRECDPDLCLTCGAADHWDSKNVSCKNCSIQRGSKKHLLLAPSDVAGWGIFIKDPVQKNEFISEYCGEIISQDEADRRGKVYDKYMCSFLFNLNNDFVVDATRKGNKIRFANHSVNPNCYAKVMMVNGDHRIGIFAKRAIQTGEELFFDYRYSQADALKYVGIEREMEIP

[11] = molecular target: Histone-lysine N-methyltransferase SUV39H2 (Homo sapiens) (UniProt Q9H5I1); assay: Inhibition of SUV39H2 (unknown origin) using biotin-labeled histone substrate assessed as residual activity at 50 uM in presence of [3H-Me]SAM by scintillation proximity assay relative to control

| Compound | Activity [1] [%] | Activity [2] [%] | Activity [3] [%] | Activity [4] [%] | Activity [5] [%] | Activity [6] [%] | Activity [7] [%] | Activity [8] [%] | Activity [9] [%] | Activity [10] [%] | Activity [11] [%] |
| --- | --- | --- | --- | --- | --- | --- | --- | --- | --- | --- | --- |
| O=C(c1cccc(Br)c1)N1CCC[C@@H]2CNC[C@@H]21 | 102 | 109 | 109 | 84 | 98 | 95 | 106 | 103 | 101 | 94 | 104 |
| CN1C[C@H]2CCCN(C(=O)c3cccc(Br)c3)[C@H]2C1 | 93 | 102 | 106 | 106 | 99 | 97 | 102 | 100 | 96 | 91 | 77 |
| O=C(c1cccc(Br)c1)N1C[C@@H]2CC3CCCN3[C@@H]2C1 (stereo partly drawn) | 100 | 88 | 107 | 109 | 106 | 99 | 106 | 101 | 101 | 90 | 102 |
| O=C(c1cccc(Br)c1)N1CC[C@@H]2[C@@H](CC3CCCCN32)C1 (stereo partly drawn) | 99 | 109 | 101 | 100 | 93 | 94 | 106 | 89 | 98 | 86 | 113 |
| O=C(c1cccc(Br)c1)N1CCCC2(CCCCN2)C1 (stereo not drawn) | 97 | 110 | 100 | 88 | 109 | 90 | 103 | 96 | 96 | 96 | 91 |

Further lines, results first:

| Activity [1] [%] | Activity [2] [%] | Activity [3] [%] | Activity [4] [%] | Activity [5] [%] | Activity [6] [%] | Activity [7] [%] | Activity [8] [%] | Activity [9] [%] | Activity [10] [%] | Activity [11] [%] | Compound |
| --- | --- | --- | --- | --- | --- | --- | --- | --- | --- | --- | --- |
| 97 | 115 | 103 | 104 | 96 | 103 | 99 | 94 | 103 | 88 | 111 | CN1CCCCC12CCN(C(=O)c1cccc(Br)c1)CC2 |
| 105 | 104 | 105 | 102 | 101 | 103 | 98 | 96 | 105 | 97 | 84 | CN1CCC2(CCCN(C(=O)c3cccc(Br)c3)C2)C1 (stereo not drawn) |
| 100 | 109 | 89 | 106 | 82 | 102 | 91 | 99 | 101 | 91 | 91 | CN1CCCCC12CCCN(C(=O)c1cccc(Br)c1)C2 (stereo not drawn) |
